Assay results: patent US6399542B1, “Alkoxyimino-substituted bicyclic compounds compositions containing the same and method of making such compounds” (Agro-Kanesho Co., Ltd., priority 1997, dated 2002)
Read-outs that look alike come from different tables or passages of the source.

What was measured:
Erysiphe graminis = assay: Effects on Barley powdery mildew (preventive spray test); assay type: in vivo; settings: lesions counted seven days after inoculation
Botrytis cinerea = assay: Effect on Cucumber gray mold (cotyledon paper disc test); assay type: in vivo; settings: 3 days after inoculation
Puccinia recondite = assay: Penetration and translocation in wheat leaves (covered leaf tip, brown rust); assay type: in vivo; settings: conc. of active ingredient 200 ppm
[1] = test system: Psecidoperonospora cubensis; assay: Effect on Cucumber downy mildew (preventive spray test); assay type: in vivo; settings: 7 days after inoculation
[2] = test system: Pseudoperonospora cubenis; assay: Penetration and translocation in cucumber leaf (drop on back of leaf, downy mildew); assay type: in vivo; design: key: 3: At least 40% of the area of the leaf was free from the disease.; 20 to 40% of the area of the leaf was free from the disease.; 1: An area larger than the spot of the drop but smaller than 20% of the area of the leaf was free from the disease.; 0: Only the spot of the drop was free from the disease; settings: 10 μl drop on back of leaf, conc. of active ingredient 200 ppm, disease-free area 5 days after the spraying
Experimental: Four points were marked at random on the first leaf of each cucumber seedling (variety: Shogoin aonaga fushinari) in two-leaf stage in each pot having a diameter of 6 cm. […] The leaf was kept in a greenhouse for one day and then uniformly inoculated with a zoospore suspension of Pseudoperonospora cubenis by means of a spray gun, then left to stand in a high-humidity room at 24° C. for 24 hours, and kept in a greenhouse. The area of the disease-free part 5 days after the spraying was represented in terms of the index.
3: At least 40% of the area of the leaf was free from the disease.
2: 20 to 40% of the area of the leaf was free from the disease.
1: An area larger than the spot of the drop but smaller than 20% of the area of the leaf was free from the disease.
0: Only the spot of the drop was free from the disease.

Chochliobolus miyabeanus = assay: Effect on Rice brown spot (preventive spray test); assay type: in vivo; settings: 7 days after inoculation
Spodoptera litura = assay: Effect on Spodoptera litura (chinese cabbage leaf spray); settings: Test Example 12
Experimental: 500 ppm of a compound of the present invention in the form of an emulsion diluted with water was sprayed on a leaf of chinese cabbage seedling in 3- to 4-leaf stage. After air-drying, the leaf was placed in a plastic vessel having a size of 21 cm(length)×13 cm(width)×3 cm (depth). Ten larvae of Spodoptera litura of the third instar were put therein. The lid was put on the vessel, which was then left in a room kept at 26° C. for 48 hours and then the numbers of the living imagoes and dead ones were counted, and the rate of dead imagoes was calculated (repetition: twice).

Rhizoctonia solani = assay: Effect on Rice sheath blight (preventive spray test); settings: 10 days after inoculation
Experimental: An emulsion of a compound of the present invention prepared in Preparation Example 2 was diluted with water and uniformly sprayed on 5 rice plant seedlings (variety: Koshihikari) in 4.5-leaf stage in each plastic pot having a diameter of 6 cm, with a spray gun. One day after the spraying, the seedlings were bundled at the second sheath with a string. Colonies of Rhizoctonia solani previously cultured in PSA culture medium were bored with a cork borer to obtain pieces having a diameter of 4 mm. The piece was put in the bundle, and kept in a high-humidity room at 25° C. until the examination. Ten days after the inoculation, the degree of the disease was examined, and the preventive rate (effect of inhibiting the disease) was calculated on the basis of the following standard:
Preventive rate=[1-D′/C′]×100
C′: Severity in untreated section
D′: Severity in treated section.

Tetranychus kanzawai = assay: Effect on Tetranychus kanzawai (green bean leaf spray); settings: Test Example 11
Experimental: A piece (3 cm×5 cm) of green bean leaf was placed with the backside up, on a filter paper wet with water so as to prevent the leaf from drying, and inoculated with 10 female imagoes of Tetranychus kanzawai per a leaf. 24 hours after the inoculation, 500 ppm of a compound of the present invention in the form of an emulsion diluted with water was sprayed thereon. After air-drying, the piece was left to stand in a room kept at 26° C. for 24 hours and then the numbers of the living imagoes and dead ones were counted, and the rate of dead imagoes was calculated (repetition: twice).

Phytophthora infestans = assay type: in vivo; settings: Tomato late blight, 5 days after inoculation
Aphis gossypii = assay: Effect on Aphis gossypii (cucumber seedling spray); settings: Test Example 15
Description: 5 or 6 imagoes of Aphis gossypii were released on a cucumber seedling of 1- or 2-leaf stage in a pot. Two days after, the larvae were confirmed and the imagoes were removed. Then 500 ppm or 50 ppm of a compound of the present invention in the form of an emulsion diluted with water was sprayed on the cucumber seedling. After air-drying, the leaves were cut and put in a plastic vessel having a size of 9 cm (inner diameter)×6.5 cm (depth). The lid was put on the vessel, which was then left in a room kept at 26° C. for 48 hours and then the numbers of the living imagoes and dead ones were counted, and the rate of dead imagoes was calculated (repetition: twice).

Nephotettix cincticeps = assay: Effect on Nephotettix cincticeps (rice seedling immersion); settings: Test Example 14
Experimental: Rice plant seedlings were immersed in 500 ppm or 50 ppm of a compound of the present invention in the form of an emulsion diluted with water for 10 seconds. After air-drying, the root of each seedling was covered with a wet absorbent cotton and the seedling was put in a test tube. Ten larvae of Nephotettix cincticeps of the second instar were put therein. The opening of the test tube was covered with a gauze, and the test tube was then left in a room kept at 26° C. for 48 hours and then the numbers of the living imagoes and dead ones were counted, and the rate of dead imagoes was calculated (repetition: twice).

Pyricularia oryzae = assay type: in vivo; settings: Rice blast, 7 days after inoculation
Puccinia recondita = assay: Effect on Wheat brown rust (preventive spray test); assay type: in vivo; settings: 7 days after inoculation
Plutella xylostella = assay: Effect on Plutella xylostella (Chinese cabbage leaf spray); settings: Test Example 13
Experimental: 500 ppm or 50 ppm of a compound of the present invention in the form of an emulsion diluted with water was sprayed on a leaf of Chinese cabbage seedling in 3- to 4-leaf stage. After air-drying, the leaf was placed in a plastic vessel having a size of 9 cm (inner diameter)×6.5 cm (depth). Ten larvae of Plutella xylostella of the third instar were put therein. The lid was put on the vessel, which was then left in a room kept at 26° C. for 48 hours and then the numbers of the living imagoes and dead ones were counted, and the rate of dead imagoes was calculated (repetition: twice).

[3] = conc. of active ingredient 20 ppm
[4] = conc. of active ingredient 100 ppm

## CNC(=O)/C(=N/OC)c1ccccc1COc1ccc2c(c1)CCC2 [comparative compound (1), 2-methoxyimino-2-[2-(indane-5-yloxymethyl)-phenyl]-acetic acid methylamide, reference compound]
Erysiphe graminis; [3]
  Preventive rate (%): 17%
Erysiphe graminis; [4]
  Preventive rate (%): 99%
Botrytis cinerea; [3]
  Preventive rate (%): 25%
Botrytis cinerea; [4]
  Preventive rate (%): 44%
Puccinia recondite
  Number of lesions formed within the mark to the tip: 48
  Preventive rate (%): 23%
  Rate of the translocation perfect preventive conc. (%): 4.4%
[1]; [3]
  Preventive rate (%): 30%
[1]; [4]
  Preventive rate (%): 81%
[2]
  Index: 0
Chochliobolus miyabeanus; [3]
  Preventive rate (%): 0%
Chochliobolus miyabeanus; [4]
  Preventive rate (%): 64%
Spodoptera litura
  effect of controlling insect pests: did not exhibit the effect of controlling insect pests
Rhizoctonia solani; [3]
  Preventive rate (%): 0%
Rhizoctonia solani; [4]
  Preventive rate (%): 24%
Tetranychus kanzawai
  effect of controlling insect pests: did not exhibit the effect of controlling insect pests
Phytophthora infestans; [3]
  Preventive rate (%): 63%
Phytophthora infestans; [4]
  Preventive rate (%): 94%
Aphis gossypii
  effect of controlling insect pests: did not exhibit the effect of controlling insect pests
Nephotettix cincticeps
  effect of controlling insect pests: did not exhibit the effect of controlling insect pests
Pyricularia oryzae; [3]
  Preventive rate (%): 48%
Pyricularia oryzae; [4]
  Preventive rate (%): 63%
Puccinia recondita; [3]
  Preventive rate (%): 86%
Puccinia recondita; [4]
  Preventive rate (%): 99%
Plutella xylostella
  effect of controlling insect pests: did not exhibit the effect of controlling insect pests
